Read-outs that look alike come from different tables or passages of the source.
Tests used:
[1] = molecular target: T1, mouse NPC1L1 (Mus musculus, UniProt Q6T3U4, N476K); experiment: Fluorescence NPC1L1 binding assay, HEK-293 cells, fluorescent compound 2 as ligand
T1 construct: expressed in transfected cells
Method: (§1) Cell Culture and Membrane Preparation. Each plasmid pCR3.1 harboring NPC1L1 was prepared using standard molecular biology protocols. Stable cell lines expressing human, rhesus monkey, mouse, rat, hamster, canine or rabbit NPC1L1 were generated using Lipofectamine 2000 transfection reagent in HEK-293 cells according to the manufacturer's protocol. Cells were maintained in DMEM supplemented with 10% FBS, 100 U/ml pen/strep, and 500 μg/ml geneticin at 37° C., 5% CO2. All cell culture reagents were obtained from Invitrogen Life Technologies, (Carlsbad, Calif.). Cell membranes were prepared by lysing cells in 5 mM HEPES with protease inhibitors (Complete™ Protease Inhibitor Cocktail Tablets; Roche Diagnostics Corp., Indianapolis Ind.) for 15 min at 4° C. A membrane pellet was obtained by centrifuging the cell lysates at 12,000×g for 25 min. The membranes were resuspended in 5 mM HEPES with protease inhibitors and triturated with a 21G needle.
(§2) Fluorescence. Cells were plated into 384-well black/clear plates (BD Biosciences, Bedford Mass.) for binding experiments the following day. The media was aspirated. […] Media (20 μl) containing the indicated concentration of compound was then added to the wells. […] The binding reaction was allowed to proceed for 4 hours at 37° C. Subsequently the media was aspirated and the cells washed once with PBS.
In an effort to show binding to mouse NPC1L1, several related ezetimibe analogs were examined as possible alternatives to fluorescently-labeled (BODIPY) ezetimibe glucuronide (compound 1) in the binding assay. Compound 2, which is a fluorescently labeled synthetic precursor for fluorescently-labeled (BODIPY) ezetimibe glucuronide (compound 1; Burnett et al., Bioorganic and Medicinal Chemistry Letters 12:315-318 (2002)), was identified as a viable option for detection of mouse NPC1L1 binding. Compound 2 contains a methyl ester substitution for the carboxylic acid on the glucuronide portion of the molecule (compound structures shown in FIG. 4A).

[2] = system: cholesterol absorption; experiment: In vivo potency of ezetimibe (ED50); conditions: Mouse
[3] = system: plasma and liver cholesterol; experiment: Percent cholesterol lowering in plasma and liver; type: in vivo; conditions: hamster
[4] = system: ^14C-cholesterol absorption; experiment: Acute cholesterol absorption assay; type: in vivo; conditions: rat, intraduodenal; read-out: rat ED50, inhibition of cholesterol absorption
Method: Acute cholesterol absorption assay. ^14C-cholesterol absorption was determined acutely in rats using conditions previously described (Van Heek et al., J. Pharmacol. Exp. Ther. 283: 157-163 (1997)). Compounds were dissolved in rat bile and delivered (1.0 ml) intraduodenally by bolus injection via an intestinal catheter, followed by 1.0 ml saline rinse (0.9%). Following a 30 min incubation, a cholesterol emulsion containing 3 mg cholesterol and 2 μCi ^14C-cholesterol (3 ml) was delivered to each rat as a bolus via intestinal catheter, followed by 1 ml saline rinse. Animals were sacrificed 90 min later and ^14C-cholesterol levels in plasma, liver, intestinal contents, and intestinal wall were determined.

[5] = following oral administration; cited from earlier work
[6] = system: cholesterol absorption; experiment: In vivo potency of ezetimibe (ED50); conditions: Rat
[7] = system: cholesterol absorption; experiment: In vivo potency of ezetimibe (ED50); conditions: Mesocricetus auratus, Hamster
[8] = molecular target: monkey NPC1L1 (Macaca mulatta, UniProt A0MJA5); experiment: Fluorescence NPC1L1 binding assay, HEK-293 cells, BODIPY-labeled compound 1; set-up: species or system rhesus monkey; conditions: Monkey NPC1L1, competition with compound 1; read-out: Ki
Method: as §1, §2

[9] = system: cholesterol absorption; experiment: In vivo potency of ezetimibe (ED50); conditions: Primates, Monkey
[10] = system: cholesterol absorption; experiment: In vivo potency of ezetimibe (ED50); conditions: Canis lupus familiaris, Canine
[11] = molecular target: T2, human NPC1L1 (Homo sapiens, UniProt Q9UHC9, T1073A); experiment: Fluorescence NPC1L1 binding assay, HEK-293 cells, BODIPY-labeled compound 1; conditions: Human NPC1L1, competition with compound 1; read-out: Ki
T2 construct: expressed in transfected cells
T2 sequence (Q9UHC9 22-1332 isoform Q9UHC9-2 T1046A): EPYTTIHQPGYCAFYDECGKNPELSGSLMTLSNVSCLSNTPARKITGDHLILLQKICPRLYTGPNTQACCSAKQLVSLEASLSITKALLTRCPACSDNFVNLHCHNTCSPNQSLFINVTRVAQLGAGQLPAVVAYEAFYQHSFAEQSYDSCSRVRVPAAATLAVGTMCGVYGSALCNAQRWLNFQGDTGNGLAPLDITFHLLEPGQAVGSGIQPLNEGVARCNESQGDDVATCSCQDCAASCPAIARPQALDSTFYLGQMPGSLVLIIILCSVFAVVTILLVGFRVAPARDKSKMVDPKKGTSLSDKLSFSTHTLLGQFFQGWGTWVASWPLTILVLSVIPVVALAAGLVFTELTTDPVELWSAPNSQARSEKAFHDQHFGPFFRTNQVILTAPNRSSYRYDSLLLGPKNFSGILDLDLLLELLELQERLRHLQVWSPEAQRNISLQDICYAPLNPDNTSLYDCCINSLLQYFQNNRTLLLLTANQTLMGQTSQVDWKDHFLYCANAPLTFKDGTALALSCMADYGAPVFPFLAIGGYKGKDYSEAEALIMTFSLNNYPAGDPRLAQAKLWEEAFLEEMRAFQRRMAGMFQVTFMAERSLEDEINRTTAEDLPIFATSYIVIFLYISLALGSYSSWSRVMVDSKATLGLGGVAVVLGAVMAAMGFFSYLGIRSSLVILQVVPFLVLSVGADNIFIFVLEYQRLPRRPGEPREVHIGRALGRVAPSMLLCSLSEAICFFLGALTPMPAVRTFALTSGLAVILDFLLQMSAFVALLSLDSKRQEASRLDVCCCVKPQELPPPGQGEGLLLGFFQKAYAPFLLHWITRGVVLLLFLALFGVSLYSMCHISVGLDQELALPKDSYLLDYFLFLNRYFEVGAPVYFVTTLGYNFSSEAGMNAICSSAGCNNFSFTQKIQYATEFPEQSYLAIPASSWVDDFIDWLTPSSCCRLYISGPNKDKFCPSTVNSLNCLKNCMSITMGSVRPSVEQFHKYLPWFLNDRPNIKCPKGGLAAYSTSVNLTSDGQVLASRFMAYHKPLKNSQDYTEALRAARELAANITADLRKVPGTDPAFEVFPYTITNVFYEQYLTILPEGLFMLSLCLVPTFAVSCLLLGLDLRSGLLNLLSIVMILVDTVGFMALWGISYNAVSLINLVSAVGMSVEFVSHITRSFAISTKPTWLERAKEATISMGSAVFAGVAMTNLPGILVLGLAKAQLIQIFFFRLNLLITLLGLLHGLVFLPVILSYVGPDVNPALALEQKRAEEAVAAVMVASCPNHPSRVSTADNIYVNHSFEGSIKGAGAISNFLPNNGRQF
Method: as §1, §2

[12] = molecular target: T3, rat NPC1L1 (Rattus norvegicus, UniProt Q6T3U3, A349V/E317P/G318E/K324N/L297S); experiment: as above; conditions: Rat NPC1L1, competition with compound 1; read-out: Ki
T3 construct: expressed in transfected cells
Method: as §1, §2

[13] = molecular target: canine NPC1L1 (Canis lupus familiaris, UniProt A0MJA4); experiment: as above
Method: as §1, §2

[14] = molecular target: rabbit NPC1L1 (Oryctolagus cuniculus, UniProt A0MJA7); experiment: as above
Method: as §1, §2

[15] = molecular target: hamster NPC1L1 (Mesocricetus auratus, UniProt A0MJA8); experiment: as above
Method: as §1, §2

[16] = intraduodenal delivery, first pass metabolism in the intestine; cited from earlier work

- Ki ([1]; Mouse NPC1L1, competition with compound 2, read-out: Ki): 5400 nM
- Ki ([1]; Table 3, Mouse, read-out: Ki Mouse NPC1L1): 9000 nM
- Ki [8]: 900 nM
- Ki [11]: 2240 nM
- Ki [12]: 970 nM
- Ki ([13]; Canine NPC1L1, competition with compound 1, read-out: Ki): 770 nM
- Ki ([13]; Table 3, Dog, read-out: Ki Dog NPC1L1): 770 nM
- Ki ([14]; Rabbit NPC1L1, competition with compound 1, read-out: Ki): 2120 nM
- Ki ([14]; Table 3, Rabbit, read-out: Ki Rabbit NPC1L1): 2100 nM
- Ki ([15]; Hamster NPC1L1, competition with compound 1, read-out: Ki): 1530 nM
- Ki ([15]; Table 3, Hamster, read-out: Ki Hamster NPC1L1): 1530 nM
Structure (SMILES): O=C1[C@H](CC[C@H](O)c2ccc(F)cc2)[C@@H](c2ccc(O)cc2)N1c1ccc(F)cc1 [compound 3, ezetimibe]
- ED50 [2]: 0.7 mg/kg
- cholesterol lowering Liver ([3]; liver): 96%
- cholesterol lowering Plasma ([3]; plasma): 26%
- ED50 [4]: 0.0016 mg/kg
- fraction of ezetimibe glucuronidated [5]: 90%
- ED50 [6]: 0.03 mg/kg
- ED50 [7]: 0.04 mg/kg
- ED50 [9]: 0.0005 mg/kg
- ED50 [10]: 0.007 mg/kg
- fraction of compound in portal plasma that is the glucuronide compound 4 [16]: > 95%

Source: patent US8212016B2, “NPC1L1 orthologues” (Schering Corporation, priority 2006, dated 2012)
